Blank lines part the entries; values can stand above or below the compound they belong to.
Experiments:
[1] = system: mitochondria of 32D c13 hemopoietic cells; assay: Mass spectrometry of compounds in mitochondria isolated from 32D cl3 cells; type: cell-based, mouse; conditions: 100 μM; for permeation of the mitochondrial membrane (unconjugated compound): two hours at 37° C.; for Fmole/l 0 M mitochondrial protein (relative quantification of conjugate concentration at the target site): mouse, 2 h
Description: An unconjugated and conjugated NOS antagonist, (AMT, 100 μM) and an unconjugated and conjugated nitroxide derivative (4-amino-TEMPO, 100 μM) were incubated for two hours at 37° C. with 32D c13 hemopoietic cells.
Following incubation, the cells were lysed and the mitochondria isolated for a mass spectrometry analysis where compounds isolated from mitochondria were identified as Na+ adducts. […] Thus, the targeting peptides successfully direct a NOS antagonist and a nitroxide to the mitochondria.
Quantitative mass spectrometry studies were used to compare the effectiveness of several AMT peptide conjugates in permeating the mitochondrial membrane, specifically XJB-5-234, XJB-5-133, XJB-5-241, and XJB-5-127. The Fmole/10 μM mitochondrial protein ratio provides a relative quantification of conjugate concentration at the target site.

[2] = system: mouse embryonic cells (MEC), mitochondria; assay: EPR-based analysis of integration and reduction of nitroxide conjugates in MECs; type: cell-based; conditions: MECs incubated with 10 μM compound
Description: Electron paramagnetic resonance (“EPR”) spectroscopy was used to monitor the cellular delivery of compounds 5a and 5b shown in FIG. 3 in mouse embryonic cells (“MEC”).
The following conditions were used during the EPR-based analysis of the integration and reduction of nitroxide Gramicidin S-peptidyl conjugates in MECs. The MECs at a concentration of 10 million MECs per mL were incubated with 10 μM of 4-AT and compound 5a, respectively. Recovered nitroxide radicals in whole cells, mitochondria, and cytosol fractions were resuspended in phosphate buffer saline (“PBS”) in the presence and absence, respectively, of 2 μM K3Fe(CN)6.

[3] = system: mouse embryonic cells (MEC); assay: ActD-induced apoptosis in MECs (PS externalization, caspase-3, DNA fragmentation); type: cell-based; conditions: low concentrations (10 μM)
Source text: Cells that annexin V-positive and PI-negative were considered apoptotic.

[4] = system: 32D cl 3 murine hematopoietic cells; assay: Irradiation survival curves of 32D cl 3 cells; type: cell-based, mouse; conditions: cells incubated in compound
Description: FIG. 16 illustrates the effect of GS conjugated nitroxide, XJB-5-125, on gamma-irradiation dose survival curves of 32D cl 3 murine hematopoietic cells.
Irradiation survival curves were performed on cells from the 32D cl 3 mouse hematopoietic progenitor cell line, incubated in 10 μM JP4-039 for 1 hour before irradiation, or plated in methycellulose containing 10 μM JP4-030 after irradiation. Cells were irradiated from 0 to 8 Gy, plated in 0.8% methycellulose containing media, and incubated for 7 days at 37° C. Colonies of greater than 50 cells were counted and data analyzed by linear quadratic and single-hit, multi-target models.

[5] = system: rat ileal mucosal permeability following hemorrhagic shock; assay: Intestinal mucosal permeability assay (FD4) after hemorrhagic shock; type: in vivo; conditions: intraluminal
Description: Intestinal Mucosal Permeability Assay. Animals were allowed access to water but not food for 24 h prior to the experiment in order to decrease the volume of intestinal contents. The rats were instrumented as described above. A midline laparotomy was performed and the small intestine was exteriorized from the duodenojejunal junction to the ileocecal valve. A small incision was made on the antimesenteric aspect of the proximal small intestine and saline solution (1.5 ml) was injected. The bowel was ligated proximally and distally to the incision with 4-0 silk (Look, Reading, Pa.).
The small intestine was compressed gently in aboral direction along its length to displace intestinal contents into the colon. Starting 5 cm from the ileocecal valve, the ileum was partitioned into six contiguous water-tight segments. […]
The remaining four other segments were injected with solutions containing either 4-hydroxy-2,2,6,6-tetramethylpiperidine-N-oxyl (TEMPOL) or one of the Gramicidin S-based compounds. Four different final concentrations of TEMPOL in normal saline were evaluated: 0.1, 1, 5 and 20 mM. […]
Fluorescence of FD4 in the solution inside the beaker and within each gut sac was measured using a fluorescence spectrophotometer (LS-50, Perkin-Elmer, Palo Alto, Calif.) at an excitation wavelength of 492 nm and an emission wavelength of 515 nm. […]

[6] = system: rats subjected to volume-controlled hemorrhagic shock; assay: Survival of rats subjected to volume-controlled hemorrhagic shock; type: in vivo, rat; conditions: 2 μmol/kg intravenous, no resuscitation
Description: Survival of Rats Subjected to Volume-controlled Hemorrhagic Shock. Following surgical preparation and a 5-min stabilization period to obtain baseline readings, rats were subjected to hemorrhagic shock. Bleeding was carried out in 2 phases.
Initially, 21 ml/kg of blood was withdrawn over 20 min. Immediately thereafter, an additional 12.5 ml/kg of blood was withdrawn over 40 min. Thus, hemorrhage occurred over a total period of 60 min and the total blood loss was 33.5 ml/kg or approximately 55% of the total blood volume. Rats were randomly assigned to receive XJB-5-131 (2 μmmol/kg) or its vehicle, a 33:67 (v/v) mixture of DMSO and normal saline. XJB-5-131 solution or vehicle alone was administered as a continuous infusion during the last 20 min of the hemorrhage period. The total volume of fluid infused was 2.8 ml/kg and it was administered intravenously using a syringe pump (KD100, KD Scientific, New Hope, Pa.). […] At the end of the 6 hour observation period, animals that were still alive were euthanized with an overdose of KCl.
Blood pressure was recorded continuously using a commercial strain-gauge transducer, amplifier, and monitor (590603a, SpaceLabs, Redmond, Wash.). […] Hemoglobin concentration [Hb], lactate and glucose concentration were determined using an auto-analyzer (Model ABL 725, Radiometer Copenhagen, Westlake, Ohio). […]

Structure (SMILES): CC1CCN=C(N)S1 (stereo not drawn) [AMT, 2-amino-6-methyl-thiazine, reference compound]
permeation of the mitochondrial membrane (unconjugated compound) [1]: do not enter the mitochondria membrane in substantial quantities

Structure (SMILES): CC1(C)CC(N)CC(C)(C)N1[O] [Compound 4-AT, 4-amino-TEMPO, reference compound]
integration into cells and mitochondria (EPR signal of nitroxide radicals) [2]: did not effectively permeate cells or the mitochondria | protection of MECs against ActD-induced apoptosis [3]: afforded no protection | permeation of the mitochondrial membrane (unconjugated compound) [1]: only permeate the mitochondrial membrane with the assistance of the attached GS-derived targeting sequence

Structure (SMILES): CC1(C)CC(O)CC(C)(C)N1[O] [TEMPOL, 4-hydroxy-2,2,6,6-tetramethylpiperidine-N-oxyl, reference compound]
Do of gamma-irradiation survival curve [4]: 1.209 Gy

Structure (SMILES): CC(C)C[C@@H](/C=C/[C@H](Cc1ccccc1)C(=O)N1CCC[C@H]1C(=O)N[C@H](C(=O)N[C@@H](CCCNC(=O)OCc1ccccc1)C(=O)NC1CC(C)(C)N([O])C(C)(C)C1)C(C)C)NC(=O)OC(C)(C)C [XJB-5-131]
integration into cells and mitochondria (EPR signal of nitroxide radicals) [2]: concentrated in the mitochondria | integration into cells and mitochondria (EPR signal of nitroxide radicals) ([2]; listed as 5a): integration and one-electron reduction | hemorrhagic shock-induced mucosal hyperpermeability relative to control value [5]: approximately 60% | survival versus vehicle [6]: survived significantly longer

Fmole/l 0 M mitochondrial protein (relative quantification of conjugate concentration at the target site) [1]: 89.8 Fmole/l 0 M mitochondrial protein
Structure (SMILES): CC(C)C[C@@H](/C=C/[C@H](Cc1ccccc1)C(=O)N1CCC[C@H]1C(=O)N[C@H](C(=O)N[C@@H](CCCNC(=O)OCc1ccccc1)C(=O)NC1=NCCC(C)S1)C(C)C)NC(=O)OC(C)(C)C (stereo partly drawn) [XJB-5-133, Boc-Leu-ψ[(E)-CH═CH]-^DPhe-Pro-Val-Orn(Cbz)-AMT]

Fmole/l 0 M mitochondrial protein (relative quantification of conjugate concentration at the target site) [1]: 1.45 Fmole/l 0 M mitochondrial protein
Structure (SMILES): CC(C)C[C@@H](/C=C/[C@H](Cc1ccccc1)C(=O)NC1=NCCC(C)S1)NC(=O)OC(C)(C)C (stereo partly drawn) [XJB-5-234, Boc-Leu-ψ[(E)-CH═CH]-^DPhe-AMT]

Fmole/l 0 M mitochondrial protein (relative quantification of conjugate concentration at the target site) [1]: 103.3 Fmole/l 0 M mitochondrial protein
Structure (SMILES): C/C(=C\[C@H](Cc1ccccc1)C(=O)N1CCC[C@H]1C(=O)N[C@H](C(=O)N[C@@H](CCCNC(=O)OCc1ccccc1)C(=O)NC1=NCCC(C)S1)C(C)C)[C@H](CC(C)C)NC(=O)OC(C)(C)C (stereo partly drawn) [XJB-5-241, Boc-Leu-104 [(E)-C(CH3)═CH]-^DPhe-Pro-Val-Orn(Cbz)-AMT]

Source: patent US8748369B2, “Use of targeted nitroxide agents in bone healing” (University of Pittsburgh-Of the Commonwealth System of …, priority 2009, dated 2014)
